# Laboratory results taken from patent US8557864B2, “Agent having neurotrophic factor-like activity” (Nagoya Industrial Science Research Institute, priority 2007, dated 2013).
# How the values were obtained:
# Format in all cases: in vivo
# [1] = system: mice under chronic mild stress; test: Tail suspension test after completion of stress
# Procedure: A site of 1 cm from the tip of the tail of a mouse was grasped by a hand, being apart from a floor from 10 cm, and an immobility time in suspension for 6 minutes was measured for 2 hours. Since the immobility time prolongs when the mouse has a depressive symptom (condition), a level of the depressive symptom (condition) can be evaluated from the length of the immobility time. FIGS. 6 and 7 show the results.
# (§1) Example 2 is a behavior test in which the compound 8 was administered to a mouse as well as stress was applied and a suppression effect of the compound 8 on depressive and anxiety symptoms of the mouse was examined. On the other hand, the present example is a behavior test in which only stress was applied for 3 weeks without administering the compound 8 and stress was completed and a therapeutic effect of the compound 8 on depressive and anxiety symptoms of a mouse after removing stress was examined. Stress was applied to a mouse in the same manner as in Example 2. […]
# [2] = system: mice under chronic mild stress; test: Tail suspension test comparing compound 8 and fluvoxamine after chronic mild stress; conditions: Exp. 2 (1 week after stress); compound 8 500 μg/kg, fluvoxamine 1000 μg/kg intraperitoneally once per day
# Procedure: 7-week-old male ddY strain mice fed in one cage for 4 mice were first subjected to forced swimming for 15 minutes in the same manner as stress in Example 2 (behavior test of mice under stress) (1) described in the paragraph [0063] in the specification. Then, stress for 1 week using 3 kinds of cages was regarded as 1 cycle, and the stress was applied for 3 cycles (3 weeks) and chronic mild stress (CMS) was applied. The compound 8 and fluvoxamine were administered to mice immediately after stress in Exp. 1, 1 week after stress in Exp. 2, and 2 weeks after stress in Exp. 3, respectively, and tail suspension tests were carried out on the respective test groups. In each test group, the compound 8 was adjusted in concentration so as to have each of the doses of […] and fluvoxamine was adjusted in concentration so as to have a dose of 1000 μg/kg, by dissolving in 0.1% DMSO, and each dose of the compound 8 and fluvoxamine were intraperitoneally injected to mice once per day from the time immediately after stress. Further, to 7-week-old male ddY strain mice fed in one cage for 4 mice without stress, the compound 8 and fluvoxamine were administered to carry out the tail suspension tests in the same manner as the stressed mice. FIG. 31 show the result. A significance test was performed in a Student's t-test (*). […] “DAEE” denotes the compound 8 and “Flu” denotes fluvoxamine.
# [3] = system: mice under chronic mild stress; test: Burying the glass-marbles test after completion of stress; conditions: 20 μg/kg and 100 μg/kg; 1 week- and 2 week-administration groups after completion of stress
# Procedure: Tips were bedded so as to have a height of 5 cm in a box with […] and 25 glass marbles (1.6 cm in diameter) were placed thereon at 5 cm-interval and behaviors of mice were observed. The number of buried glass marbles was found by counting each glass marble that was buried in ⅔ or more from visual observation from just above after 15 minutes as one count. The test was performed for 3 hours. Since a mouse under stress having an anxiety symptom (condition) takes such a behavior as burying glass marbles, a level of the anxiety symptom can be evaluated from the number of buried glass marbles.
# as §1
smiles,measurement,setting,value
"CCCCCCC/C=C/C(=O)OCC [Compound 8, trans-2-decenoic acid ethyl ester]","immobility time, stressed vs non-stressed example","[1]; 500 μg/kg, 1 week-administration groups after completion of stress",no significant difference
same,"immobility time, stressed vs non-stressed example","[1]; all administration examples, 2 week-administration groups after completion of stress",no significant difference
same,effect on depressive symptom (immobility time),[2],had an effect
same,"number of buried glass marbles, stressed vs non-stressed example",[3],no significant difference
